The numbers were not newly measured in patent US20260256858A1, “Amanita Muscaria Mushroom Extracts and Products, and Improved Processes for Producing Extracts of Amanita Muscaria Mushrooms at Kilogram Scale” (priority 2023, published 2026), which cites them from elsewhere.

The conditions of series [1]: after ingestion of Amanita mushrooms.
Setting [2] is: IV injection, 8 μmol/kg, 150 g rat.

In the case of `NCc1cc(=O)[nH]o1` [muscimol, 5-(aminomethyl)-1,2-oxazol-3 (2H)-one], in series [1], the “detection in urine after ingestion” value is reported as “detected within an hour after ingestion”. Moreover, for the setting “IV injection of 3H-muscimol, 8 μmol/kg, rat”, the “brain regions with the highest muscimol concentration” value was “the substantia nigra, the colliculi and the hypothalamus”. For the same compound, under setting [2], the “amount of the dose injected that crossed to the brain” value is “approximately 0.02%” and the “muscimol concentration in brain” value is given as “approximately 200 pmol/g tissue”. In addition, the “time until blood concentration was below limits of detection” value (after intravenous injection, rat) was not above 180 min. The “distribution in corneum stratum compared to hypothalamus, hippocampus and cortex” value (intracerebroventricular injection, 1200 nmol/kg, rat) is “approximately 2 times higher”. Besides, the “tolerability (adverse effects or toxicity)” value (intravenous injection of muscimol, 8 μmol/kg, rat) is “well-tolerated”.

`N[C@H](C(=O)O)c1cc(=O)[nH]o1` [ibotenic acid, (S)-2-amino-2-(3-hydroxyisoxazol-5-yl) acetic acid]: the “detection in urine after ingestion” value in series [1] was “detected within an hour after ingestion”.
